Values quoted from earlier work, collected in US6423320B1, “Inhibitor of immunoglobulin E antibody production” (Tayca Corporation, priority 1997, dated 2002).
Structures can show the parent of a compound that is named as a salt.

System: IgE antibody production
Conditions: Bio Industry, Vol. 13, No. 12, pp. 42-50 (1996)

For `CCOCC(O)COc1ccc(NC(=O)CC[S+](C)C)cc1` (stereo not shown) [IPD, Suplatast Tosylate], the “Inhibitory action on the production of IgE antibody” value is given as “extremely weak inhibitory action”.
